This note sets out measurements from BindingDB's records for doi:10.1073/pnas.0705637104 (Nih, 2007).

pIC50, pKi: −log10 of the molar value.

For the assay, the target named is T1, Lysosomal acid glucosylceramidase (Homo sapiens, UniProt P04062).
T1 sequence (P04062 whole entry): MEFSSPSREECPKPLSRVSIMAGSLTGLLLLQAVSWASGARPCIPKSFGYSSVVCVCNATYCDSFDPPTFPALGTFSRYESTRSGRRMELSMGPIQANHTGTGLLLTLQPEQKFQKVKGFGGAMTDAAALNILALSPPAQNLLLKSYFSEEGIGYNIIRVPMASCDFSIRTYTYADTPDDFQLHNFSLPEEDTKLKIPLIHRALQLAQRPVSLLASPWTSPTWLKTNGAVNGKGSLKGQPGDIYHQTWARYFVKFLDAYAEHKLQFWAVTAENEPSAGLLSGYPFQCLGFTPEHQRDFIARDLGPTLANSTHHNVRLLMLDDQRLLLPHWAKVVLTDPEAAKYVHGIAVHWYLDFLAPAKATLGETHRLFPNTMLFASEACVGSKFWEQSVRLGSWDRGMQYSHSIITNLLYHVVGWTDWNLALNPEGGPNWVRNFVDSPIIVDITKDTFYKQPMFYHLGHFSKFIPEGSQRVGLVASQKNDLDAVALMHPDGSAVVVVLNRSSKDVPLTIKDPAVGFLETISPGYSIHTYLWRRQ
In words: GC Enzyme Assay. To be noted: pH 5.9; 21 °C.

Regarding `CN(c1ccc(C(=O)Nc2nccs2)cc1)S(=O)(=O)c1ccccc1`, the pIC50 (usually the IC50 on a negative log10 scale, so that one unit is a factor of ten) is 4.46 and the negative logarithm of the Ki (pKi) (as a rule, the negative decadic logarithm of the Ki, by convention in mol/L) is 4.63.
For `O=C(Nc1nccs1)c1ccc(NS(=O)(=O)c2ccc(Cl)cc2)cc1` [4-[(4-chlorobenzene)sulfonamido]-N-(1,3-thiazol-2-yl)benzamide], in that order: 5.89 and 6.25.
